Patent US20240245602A1, “DRUG COMBINATION KITS AND METHODS OF DRUG DELIVERY” (President and Fellows of Harvard College, priority 2020, published 2024)

Assay: In vivo ciprofloxacin mass in aspirated middle ear fluid by HPLC/MS after delivery through implanted tympanostomy tubes
Details: after 5 minutes of therapeutic delivery (Ciprodex)
Description: N/A indicates an amount of drug below the detection limit of 100 ng/ml. Chinchillas underwent a sequential series of middle ear saline washes, and middle ear fluid was aspirated for the subsequent analysis by LC-MS.
Chinchillas were randomly allocated into two groups (LI-TT, denoted as Test TT, and SM-TT, denoted as SoC TT).

mass of ciprofloxacin within the middle ear, test tubes compared to SoC TTs: up to 5 times
SMILES: O=C(O)c1cn(C2CC2)c2cc(N3CCNCC3)c(F)cc2c1=O [ciprofloxacin]
